Assay results published in US10351915B2 (Berg LLC, priority 2009, dated 2019).

Key:
SKMEL-28 mitochondria = test: 2-D gel electrophoresis of mitochondria enriched samples; format: cell-based
SCC cells = test: Real-time PCR Heat Shock Protein Array; format: cell-based
Source text: The control cells were untreated cells.
Heat Shock Arrays were run for SCC cells and the data of regulated genes is summarized below in Table 13.

Caspase 3 = test: Western blot, Caspase 3 levels; format: cell-based, human; settings: PACA2, 5g glucose, amount 50
Procedure: The blots were stripped by incubating for 30 minutes with methanol, followed by two 10 minute washes with TBS-T, then 30 minutes of incubation with Stripping buffer at 50 deg C., and followed by two washes with 100 ml or more of TBS-T for 30′ each. The 2 blots were scanned in laser scanner to check for complete stripping. The blots were activated with methanol for 5 seconds, washed with water for 5 minutes, and TBST for 15 minutes. The blots were blocked for 1 hour with 5% blocking reagent in TBS-T at room temperature and then washed 3 times with TBS-T (1×-15′; 2×5′ each) and probed with the antibody for Caspase 3 in 5% BSA (Santacruz Biotechnology # sc7272) at 1:200 dilutions) overnight at 4 deg C. with shaking. After the overnight incubation with primary antibody for Caspase 3, the membranes were washed 3 times with TBS-T (1×-15′; 2×5′ each) and probed with the secondary antibody (antimouse; 1:10,000 dilution) for 1 h on the orbital tilting shaker at room temperature. […]
The levels of Caspase 3 and actin were determined by probing the blots successively with primary antibodies for Caspase 3 and actin, essentially as described above. […]

Hif1 alpha = test: Western blot, Hif1 alpha levels; format: cell-based, human; settings: whole cell lysates of normal cells
Procedure: The Actin blots were stripped by incubating for 30 minutes with methanol, followed by two 10 minute washes with TBS-T, then 30 minutes of incubation with Stripping buffer at 50 deg C., and followed by two washes with 100 ml or more of TBS-T for 30′ each. The blots were scanned in laser scanner to check for complete stripping. The blots were activated with methanol for 5 seconds, washed with water for 5 minutes, and TBST for 15 minutes. The blots were blocked for 1 hour with 5% blocking reagent in TBS-T at room temperature and then washed 3 times with TBS-T (1×-15′; 2×5′ each) and probed with the primary antibody for Hif 1 alpha, Caspase 3 or PDHB in 5% BSA (at 1:200 by incubation overnight at 4 deg C. with gentle shaking. The primary antibody for Hif 1 alpha (Abcam ab2185; antirabbit) was at 1:500 dilution in 5% BSA. The primary antibody for Caspase 3 (Santacruz sc7272; antirabbit) was at 1:200 dilution in 5% BSA. The primary antibody for Pyruvate Dehydrogenase beta (PDHB) (Novus Biologicals H00005162-M03; antimouse) was at 1:500 dilution in 5% BSA. After incubation with primary antibodies, the membranes were washed 3 times with TBS-T (1×-15′; 2×5′ each) and probed with the secondary antibody (PDHB antimouse; Hif 1a and Caspase 3 antirabbit; 1:10,000 dilution) for 1 h at room temperature. […]

HDFa cells = test: Extracellular acidification rate (ECAR), SeaHorse XF analyzer; format: cell-based, human
Source text: (SeaHorse Biosciences Inc, North Billerica, Mass.).
In this experiment, the OCR and extracellular acidification rate (ECAR) in normal cells lines were obtained in the presence and absence of CoQ10 to determine baseline values. It was observed that in its native nutrient environment, the basal OCR rates in normal cells lines are different, and are usually a function of the physiological roles of the cells in the body.
Table 127 below describes the ECAR values (mpH/min) in HDFa cells in the presence or absence of CoQ10 under normoxic and hypoxic conditions at 5.5 mM and 22 mM glucose.

skin cancer cells = skin cancer cells vs normal cells; cited from earlier work

COC1=C(OC)C(=O)C(C/C=C(\C)CC/C=C(\C)CC/C=C(\C)CC/C=C(\C)CC/C=C(\C)CC/C=C(\C)CC/C=C(\C)CC/C=C(\C)CC/C=C(\C)CCC=C(C)C)=C(C)C1=O [Q10, Coenzyme Q10]
Response, direction (SKMEL-28 mitochondria; 100 μM Q10, at 6 hr, protein spot 372): Up
Response (SKMEL-28 mitochondria; 100 μM Q10, at 19 hr): Up only at 19 hr
Response (SKMEL-28 mitochondria; 100 μM Q10, at 48 hr): Up at 48 hr
DNAJA1 Regulation (SCC cells; 100 μM Q10, at 6 hours): Up regulated at 6
DNAJB5 Regulation (SCC cells; 100 μM Q10, at 6 hours): Down regulated
DNAJB13 Regulation (SCC cells; 100 μM Q10, at 6 hours): Down regulated
DNAJC4 Regulation (SCC cells; 100 μM Q10, at 6 hours): Down regulated
DNAJC5B Regulation (SCC cells; 100 μM Q10, at 6 hours): Down regulated
DNAJC12 Regulation (SCC cells; 100 μM Q10, at 6 hours): Down regulated
HSPA8 Regulation (SCC cells; 100 μM Q10, at 6 hours): Up regulated at 6
HSPH1 Regulation (SCC cells; 100 μM Q10, at 6 hours): Up regulated at 6
CCT6B Regulation (SCC cells; 100 μM Q10, at 24 hours): Down regulated
Caspase 3 Normalized Volume (48 h) (Caspase 3): 701
lower band of Hif1a (Hif1 alpha): showed a decrease as well
ECAR (HDFa cells; high glucose hypoxic conditions): lowering of elevated ECAR
ECAR values (HDFa cells; normoxic and hypoxic, 5.5 mM and 22 mM glucose): minimal influence on ECAR values
rate of apoptosis (skin cancer cells): increase the rate of apoptosis in a culture of skin cancer cells but not normal cells
